Experimental data from US20240174723A1, “STAPLED ANTIMICROBIAL PEPTIDES (STAMPS) AND USES THEREOF” (Lytica Therapeutics, Inc., priority 2021, published 2024).
Values after ≈ are worked out from the molar mass of the structure shown. Positions of bridges follow the written chain, without caps; N, C: chain ends. Non-standard residues stand in square brackets, D forms with d. Residues, ends and D or L forms follow the SMILES beside them. S5 = C=CCCC[C@](C)(N)C(=O)O; Dap = NC[C@H](N)C(=O)O

Experiments:
S. aureus = type: cell-based, Staphylococcus aureus
Experimental: (§1) Antimicrobial Activity Assay: The following microbroth dilution protocol was adapted from CLSI to determine the minimum inhibitory concentration (MIC) of StAMPs. Briefly, Mueller-Hinton broth (MHB) or cation-adjusted Mueller-Hinton broth (MHB II) was prepared and autoclaved. Then, a colony of bacterial cells was picked and grown overnight in broth at 37° C. and then diluted and allowed to grow again for 3-4 hours. Serial dilutions of peptide stocks in water (10 μl) were prepared using clear round-bottom polypropylene 96-well plates. Then 90 μl of bacteria in broth was added to give a final inoculum of 5×10^5 CFU/ml. The plates were then covered with porous tape to reduce evaporation and incubated for 20-24 hours at 37° C. The MIC was the minimum peptide concentration at which no visible bacterial growth was observed.
(§2) Renal toxicity was measured after 90 minutes of incubation, while liver toxicity was measured after 48 hours of incubation with StAMPs. N/A=not tested. The following apply to all peptides (i.e., StAMPs) listed in Tables A-C: Crosslinks (X^1—X^2 and X^3—X^4): (alk); N-terminus: —NH2; C-terminus: amidated with —NH2; counterion: Cl^−. The following apply to all peptides (i.e., StAMPs) listed in Table D: Crosslinks (X^1—X^2 and X^3—X^4): (alk); N-terminus: —NH2; C-terminus: as shown in table; counterion: Cl^−.

P. aeruginosa = type: cell-based, Pseudomonas aeruginosa
Experimental: as §1, §2
StAMP Micelle Formulation: DSPE-MPEG(2000) was suspended in buffered saline at 50-100 mg/mL overnight. StAMP stock solutions at 5-20 mg/mL in buffered saline were prepared and equal volumes of micelle and StAMP stock solution were mixed at the desired StAMP:Lipid ratio. Suspensions were allowed to sit for 5-10 minutes at room temperature before being used in in vitro and in vivo assays. […]

E. coli = type: cell-based, Escherichia coli
Experimental: as §1, §2

K. pneumoniae = type: cell-based, Klebsiella pneumoniae
Experimental: as §1, §2

in vitro = type: cell-based; settings: human, Inhibitory Concentration at 50% Cytotoxicity (IC50) Human Liver Cells (HepG2)
Experimental: Cell culture: RPTEC were maintained in MEM media supplemented with growth factors. HEPG2 cell line was maintained in Eagle's Minimum Essential Medium (EMEM) supplemented with fetal bovine serum to a final concentration of 10%.
48 hours cytotoxicity assay: Cells were plated in a 96-well format, and after 4 hour incubation to allow attachment, serial dilutions of StAMPs from a 5 mg/mL water stock, or vehicle, were then added to the cells in a final volume of 100 μl. After incubating at 37° C. for 48 hours, 100 μl of CellTiter-Glo® reagent was added to the cells, and the plates were incubated 10 minutes at room temperature. Luminescence was then measured on a microplate reader.
as §2

A. baumannii = type: cell-based, Acinetobacter baumannii
Experimental: as §1, §2

| Structure (SMILES) | Minimum Inhibitory Concentration (MIC) S. aureus (S. aureus) [µg/mL] | Minimum Inhibitory Concentration (MIC) P. aeruginosa (P. aeruginosa) [µg/mL] | Minimum Inhibitory Concentration (MIC) E. coli (E. coli) [µg/mL] | Minimum Inhibitory Concentration (MIC) K. pneumoniae (K. pneumoniae) [µg/mL] | IC50 at 48 hours (in vitro) [µg/mL] | Minimum Inhibitory Concentration (MIC) A. baumannii (A. baumannii) [µg/mL] |
| --- | --- | --- | --- | --- | --- | --- |
| CC(C)[C@@H]1NC(=O)[C@@](C)(NC(=O)[C@H](C)NC(=O)[C@H](CCCCN)NC(=O)CNC(=O)[C@H](Cc2ccccc2)NC(=O)[C@H](CCCCN)NC(=O)[C@H](CCCCN)NC(=O)[C@H](CCCCN)NC(=O)[C@H](CCCCN)NC(=O)[C@H](CCN)NC(=O)[C@]2(C)CCCC=CCCC[C@](C)(NC(=O)CN)C(=O)NCC(=O)N[C@@H](CCCCN)C(=O)N[C@@H](Cc3ccccc3)C(=O)N2)CCCC=CCCC[C@@](C)(C(=O)N[C@@H](C)C(=O)N[C@@H](CCCCN)C(=O)N[C@@H](CCCCN)C(N)=O)NC(=O)[C@H](CCC(=O)O)NC(=O)CNC1=O (single isomer, unassigned) [compound 41] | >64 | 4 | 2 | 4 | 115 (≈ 45.3 µM) | 2 |
| CC(C)[C@@H]1NC(=O)[C@@](C)(NC(=O)[C@H](C)NC(=O)[C@H](CCCCN)NC(=O)CNC(=O)[C@H](Cc2ccccc2)NC(=O)[C@H](CCCCN)NC(=O)[C@H](CCCCN)NC(=O)[C@H](CCCCN)NC(=O)[C@H](CCCCN)NC(=O)[C@H](CN)NC(=O)[C@]2(C)CCCC=CCCC[C@](C)(NC(=O)CN)C(=O)NCC(=O)N[C@@H](CCCCN)C(=O)N[C@@H](Cc3ccccc3)C(=O)N2)CCCC=CCCC[C@@](C)(C(=O)N[C@@H](CO)C(=O)N[C@@H](CCCCN)C(=O)N[C@@H](CCCCN)C(N)=O)NC(=O)[C@H](CCC(=O)O)NC(=O)CNC1=O [compound 89] (H-G[S5]GKF[S5][Dap]KKKKFGKA[S5]VGE[S5]SKK-NH2; staple 2-6, 16-20) | 64 | 1 | 2 | 32 | 199 (≈ 78.4 µM) | 1 |
| CC(C)[C@@H]1NC(=O)[C@@](C)(NC(=O)[C@H](C)NC(=O)[C@H](CCCCN)NC(=O)CNC(=O)[C@H](Cc2ccccc2)NC(=O)[C@H](CCCCN)NC(=O)[C@H](CCCCN)NC(=O)[C@H](CCCCN)NC(=O)[C@H](CO)NC(=O)[C@H](CCCCN)NC(=O)[C@]2(C)CCCC=CCCC[C@](C)(NC(=O)CN)C(=O)NCC(=O)N[C@@H](CCCCN)C(=O)N[C@@H](Cc3ccccc3)C(=O)N2)CCCC=CCCC[C@@](C)(C(=O)N[C@@H](C)C(=O)N[C@@H](CCCCN)C(=O)N[C@@H](CCCCN)C(=O)NCC(=O)NCC(=O)N[C@@H](CCC(=O)O)C(N)=O)NC(=O)[C@H](CCC(=O)O)NC(=O)CNC1=O [compound 90] (H-G[S5]GKF[S5]KSKKKFGKA[S5]VGE[S5]AKKGGE-NH2; staple 2-6, 16-20) | 64 | 2 | 4 | 32 | > 200 | 2 |
| CC(C)[C@@H]1NC(=O)[C@@](C)(NC(=O)[C@H](C)NC(=O)[C@H](CCCCN)NC(=O)CNC(=O)[C@H](Cc2ccccc2)NC(=O)[C@H](CCCCN)NC(=O)[C@H](CCCCN)NC(=O)[C@H](CCCCN)NC(=O)[C@H](CCCCN)NC(=O)[C@H](CCCCN)NC(=O)[C@]2(C)CCCC=CCCC[C@](C)(NC(=O)CN)C(=O)NCC(=O)N[C@@H](CCCCN)C(=O)N[C@@H](Cc3ccccc3)C(=O)N2)CCCC=CCCC[C@@](C)(C(=O)N[C@@H](C)C(=O)N[C@@H](CCCCN)C(=O)N[C@@H](CCCCN)C(=O)NCC(=O)NCC(=O)N[C@@H](CCC(=O)O)C(=O)N[C@@H](CCC(=O)O)C(N)=O)NC(=O)[C@H](CCC(=O)O)NC(=O)CNC1=O [compound 55] (H-G[S5]GKF[S5]KKKKKFGKA[S5]VGE[S5]AKKGGEE-NH2; staple 2-6, 16-20) | >64 | 16 | 16 | 64 | 207 (≈ 70.5 µM) | 8 |
